This is an account of results in patent US8802866B2, “Pyridinylimidazolone derivatives for the inhibition of PI3 kinases” (Merck Patent GmbH, priority 2009, dated 2014).

As usually defined, the IC50 is the point on the concentration scale where inhibition reaches its midpoint. The term Kd denotes the constant that tells how readily two partners part at equilibrium. Usually melting point stands for the temperature of the solid-liquid transition.

In data set [1] the target is PI3Kbeta (Homo sapiens, UniProt P42338). Nature of the data set: Biochemical PI3Kbeta assay (neomycin SPA, lipid phosphorylation). To be noted: human recombinant GST-PI3K. In outline:
(§1)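 Recombinant PI3K incubated with lipid substrate and radioactive ATP for 120 min at room temperature with gentle stirring, then stopped with neomycin-coated PVT-SPA beads, ATP 60 mM and EDTA 6.2 mM in PBS. After 60 min bead binding and centrifugation, radioactive Ptdlns(3)P counted by scintillation.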

Data set [2] deals with DNA-PK protein complex (Homo sapiens, UniProt P78527). Nature of the data set: Biochemical DNA-PK assay (FlashPlate). The procedure, abridged:
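Streptavidin-coated FlashPlate radiometric kinase assay, stopped with 200 mM EDTA, then wells washed with 0.9% NaCl and bound radioactivity counted. Blank (non-specific reaction) defined with a proprietary kinase inhibitor at 10 μM.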

In data set [3] the test system is PI3K-dependent phosphorylation of PKB at Serin 473 in PC3 cells. In words: Cellular PI3K assay (P-S473-PKB Luminex assay in PC3 cells). The settings on record: Homo sapiens, PC-3, 0.5 h; PC3 cells, 30 min, serum-free, P-S473-PKB; read-out: IC50 (cell). In kind it is cell-based. In outline: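 PC3 cells were exposed for 30 min under serum-free conditions to 7 concentrations of compound, then lysed. Lysates were captured overnight at 4°C on anti-total-PKB Luminex beads and detected with P-S473-PKB antibody plus PE-labelled secondary.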

Data set [4] addresses recombinant PI3Kalpha (shortened form of the catalytic subunit) (Homo sapiens, UniProt P42336). Nature of the data set: BIACORE PI3K binding assay (SPR). The settings on record: 25° C. The procedure, abridged:
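Contact time was 180 s and dissociation 240 s, in HEPES pH 7.40 buffer with 2% DMSO. Solvent-corrected, double-referenced data were fitted to a 1:1 model with mass transport.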
For orientation: In SPR one partner is held on a chip, and binding of the other changes the refractive index at the surface.

In data set [5] the target is PI3Kalpha (Homo sapiens, UniProt P42336). Nature of the data set: Biochemical PI3Kalpha assay (neomycin SPA, lipid phosphorylation). The settings on record: human recombinant GST-PI3K. In outline: as §1
Sequence of PI3Kalpha (P42336 whole entry): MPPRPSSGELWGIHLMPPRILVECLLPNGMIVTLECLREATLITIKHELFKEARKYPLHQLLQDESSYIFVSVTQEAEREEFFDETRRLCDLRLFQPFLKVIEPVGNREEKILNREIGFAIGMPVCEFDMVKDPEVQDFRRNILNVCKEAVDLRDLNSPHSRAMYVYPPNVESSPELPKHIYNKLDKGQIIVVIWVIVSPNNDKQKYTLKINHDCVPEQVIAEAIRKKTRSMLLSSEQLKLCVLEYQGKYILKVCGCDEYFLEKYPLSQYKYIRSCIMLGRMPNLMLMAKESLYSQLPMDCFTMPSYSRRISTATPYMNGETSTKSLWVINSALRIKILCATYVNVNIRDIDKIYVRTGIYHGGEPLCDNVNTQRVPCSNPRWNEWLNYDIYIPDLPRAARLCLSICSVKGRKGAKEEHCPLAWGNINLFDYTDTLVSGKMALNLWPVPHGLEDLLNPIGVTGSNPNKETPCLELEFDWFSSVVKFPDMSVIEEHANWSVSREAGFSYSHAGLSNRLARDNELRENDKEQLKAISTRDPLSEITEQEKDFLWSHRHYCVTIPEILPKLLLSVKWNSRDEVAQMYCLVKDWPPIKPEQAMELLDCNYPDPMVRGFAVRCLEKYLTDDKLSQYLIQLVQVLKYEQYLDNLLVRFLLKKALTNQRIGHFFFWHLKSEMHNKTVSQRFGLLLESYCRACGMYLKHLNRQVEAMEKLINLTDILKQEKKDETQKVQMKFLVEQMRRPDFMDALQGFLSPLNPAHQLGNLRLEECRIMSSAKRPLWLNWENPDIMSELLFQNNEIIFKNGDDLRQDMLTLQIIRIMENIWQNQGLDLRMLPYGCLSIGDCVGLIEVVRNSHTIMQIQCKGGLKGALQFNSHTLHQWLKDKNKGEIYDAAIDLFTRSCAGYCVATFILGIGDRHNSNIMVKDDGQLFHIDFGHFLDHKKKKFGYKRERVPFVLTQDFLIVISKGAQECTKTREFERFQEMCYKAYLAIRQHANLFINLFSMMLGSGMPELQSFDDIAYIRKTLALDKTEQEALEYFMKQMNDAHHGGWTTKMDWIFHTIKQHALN
Sequence of PI3Kalpha (P27986 whole entry partner): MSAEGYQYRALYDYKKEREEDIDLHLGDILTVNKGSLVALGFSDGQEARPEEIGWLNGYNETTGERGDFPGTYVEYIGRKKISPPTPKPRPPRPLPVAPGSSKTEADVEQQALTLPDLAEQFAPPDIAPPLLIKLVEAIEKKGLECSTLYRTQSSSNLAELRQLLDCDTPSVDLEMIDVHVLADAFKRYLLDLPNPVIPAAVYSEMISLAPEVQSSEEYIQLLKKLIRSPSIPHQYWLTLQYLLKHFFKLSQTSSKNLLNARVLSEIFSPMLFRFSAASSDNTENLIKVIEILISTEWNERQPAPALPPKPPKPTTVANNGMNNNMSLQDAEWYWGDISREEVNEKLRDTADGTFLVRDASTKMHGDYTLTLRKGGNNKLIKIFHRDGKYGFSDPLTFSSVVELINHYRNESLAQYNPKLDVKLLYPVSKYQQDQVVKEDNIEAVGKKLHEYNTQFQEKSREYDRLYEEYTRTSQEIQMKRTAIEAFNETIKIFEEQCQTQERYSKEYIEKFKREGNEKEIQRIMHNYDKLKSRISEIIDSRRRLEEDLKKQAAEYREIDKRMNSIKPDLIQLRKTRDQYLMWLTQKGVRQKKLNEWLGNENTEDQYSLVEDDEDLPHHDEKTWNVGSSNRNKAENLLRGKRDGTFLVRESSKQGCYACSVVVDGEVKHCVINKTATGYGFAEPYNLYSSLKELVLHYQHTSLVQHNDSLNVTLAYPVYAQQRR
Data set [6] addresses T1, mTOR (Homo sapiens, UniProt P42345).
T1 construct: purchased Millipore 14-770
Nature of the data set: Biochemical mTOR assay (Millipore mTOR assay kit). The protocol: The biochemical mTOR assay was carried out by the method described in the Millipore mTOR assay kit (catalogue number 14-770).

In data set [7] the target is CK2 protein kinase. To be noted: cited from earlier work.

Sequence of PI3Kbeta (P42338 whole entry): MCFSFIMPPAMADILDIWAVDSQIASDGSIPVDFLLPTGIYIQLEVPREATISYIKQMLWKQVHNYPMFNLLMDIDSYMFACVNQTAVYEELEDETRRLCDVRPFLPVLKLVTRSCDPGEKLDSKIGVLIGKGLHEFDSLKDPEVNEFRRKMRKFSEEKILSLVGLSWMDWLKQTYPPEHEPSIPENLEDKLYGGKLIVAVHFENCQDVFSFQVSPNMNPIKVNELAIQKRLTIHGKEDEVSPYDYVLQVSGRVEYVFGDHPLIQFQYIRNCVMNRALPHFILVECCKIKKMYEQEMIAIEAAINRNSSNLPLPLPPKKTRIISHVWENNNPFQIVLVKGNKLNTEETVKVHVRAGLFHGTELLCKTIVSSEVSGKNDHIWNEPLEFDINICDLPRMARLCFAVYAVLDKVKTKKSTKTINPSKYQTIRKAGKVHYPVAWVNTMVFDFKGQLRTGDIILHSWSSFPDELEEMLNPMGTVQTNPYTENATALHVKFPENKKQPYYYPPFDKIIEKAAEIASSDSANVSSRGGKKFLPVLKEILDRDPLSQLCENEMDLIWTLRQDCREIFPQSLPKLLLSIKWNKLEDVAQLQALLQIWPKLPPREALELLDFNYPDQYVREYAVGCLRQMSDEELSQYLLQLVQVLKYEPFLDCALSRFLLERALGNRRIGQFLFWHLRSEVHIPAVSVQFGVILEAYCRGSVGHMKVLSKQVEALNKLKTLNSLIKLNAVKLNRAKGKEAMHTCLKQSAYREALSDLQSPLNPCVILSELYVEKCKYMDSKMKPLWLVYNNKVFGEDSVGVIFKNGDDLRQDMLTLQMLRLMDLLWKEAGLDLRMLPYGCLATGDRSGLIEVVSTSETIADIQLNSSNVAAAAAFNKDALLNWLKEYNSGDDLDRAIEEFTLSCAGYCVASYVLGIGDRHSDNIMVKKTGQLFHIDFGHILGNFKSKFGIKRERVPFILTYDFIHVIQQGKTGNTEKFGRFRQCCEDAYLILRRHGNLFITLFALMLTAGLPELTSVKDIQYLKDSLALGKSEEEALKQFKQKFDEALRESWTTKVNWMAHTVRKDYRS
Sequence of PI3Kbeta (P27986 whole entry partner): as the sequence (P27986 whole entry partner) above
T1 sequence (P42345 1362-2549 limits assumed): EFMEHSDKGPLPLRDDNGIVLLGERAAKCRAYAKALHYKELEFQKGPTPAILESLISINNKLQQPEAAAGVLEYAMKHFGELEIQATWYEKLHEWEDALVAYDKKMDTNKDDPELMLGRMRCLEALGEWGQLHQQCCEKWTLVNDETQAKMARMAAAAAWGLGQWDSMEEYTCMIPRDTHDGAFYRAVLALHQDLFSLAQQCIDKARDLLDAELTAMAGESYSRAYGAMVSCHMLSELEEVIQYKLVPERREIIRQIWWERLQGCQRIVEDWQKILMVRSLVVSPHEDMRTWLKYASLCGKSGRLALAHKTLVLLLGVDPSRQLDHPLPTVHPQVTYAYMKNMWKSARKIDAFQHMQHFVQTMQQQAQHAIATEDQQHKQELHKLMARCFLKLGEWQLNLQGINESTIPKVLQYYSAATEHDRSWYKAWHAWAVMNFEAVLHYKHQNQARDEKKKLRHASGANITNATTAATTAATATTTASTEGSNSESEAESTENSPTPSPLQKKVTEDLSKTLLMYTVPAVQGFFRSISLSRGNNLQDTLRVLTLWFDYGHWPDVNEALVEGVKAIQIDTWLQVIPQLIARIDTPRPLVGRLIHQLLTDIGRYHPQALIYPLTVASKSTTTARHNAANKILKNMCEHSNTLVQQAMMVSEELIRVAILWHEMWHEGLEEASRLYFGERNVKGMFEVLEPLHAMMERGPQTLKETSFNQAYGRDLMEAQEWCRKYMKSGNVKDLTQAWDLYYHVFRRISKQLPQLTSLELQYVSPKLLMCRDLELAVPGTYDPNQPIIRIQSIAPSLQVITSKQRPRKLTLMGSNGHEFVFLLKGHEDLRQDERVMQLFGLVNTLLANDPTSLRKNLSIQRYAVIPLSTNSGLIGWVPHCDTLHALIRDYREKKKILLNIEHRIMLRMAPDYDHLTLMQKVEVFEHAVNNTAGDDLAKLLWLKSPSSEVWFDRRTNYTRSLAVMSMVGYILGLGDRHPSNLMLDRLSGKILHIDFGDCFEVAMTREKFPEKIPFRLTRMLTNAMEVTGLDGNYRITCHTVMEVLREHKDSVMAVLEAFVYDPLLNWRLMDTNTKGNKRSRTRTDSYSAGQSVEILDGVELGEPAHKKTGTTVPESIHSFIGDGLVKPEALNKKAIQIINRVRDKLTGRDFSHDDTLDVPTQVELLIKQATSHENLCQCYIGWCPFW
Sequence of recombinant PI3Kalpha (shortened form of the catalytic subunit) (P42336 151-1068 limits assumed): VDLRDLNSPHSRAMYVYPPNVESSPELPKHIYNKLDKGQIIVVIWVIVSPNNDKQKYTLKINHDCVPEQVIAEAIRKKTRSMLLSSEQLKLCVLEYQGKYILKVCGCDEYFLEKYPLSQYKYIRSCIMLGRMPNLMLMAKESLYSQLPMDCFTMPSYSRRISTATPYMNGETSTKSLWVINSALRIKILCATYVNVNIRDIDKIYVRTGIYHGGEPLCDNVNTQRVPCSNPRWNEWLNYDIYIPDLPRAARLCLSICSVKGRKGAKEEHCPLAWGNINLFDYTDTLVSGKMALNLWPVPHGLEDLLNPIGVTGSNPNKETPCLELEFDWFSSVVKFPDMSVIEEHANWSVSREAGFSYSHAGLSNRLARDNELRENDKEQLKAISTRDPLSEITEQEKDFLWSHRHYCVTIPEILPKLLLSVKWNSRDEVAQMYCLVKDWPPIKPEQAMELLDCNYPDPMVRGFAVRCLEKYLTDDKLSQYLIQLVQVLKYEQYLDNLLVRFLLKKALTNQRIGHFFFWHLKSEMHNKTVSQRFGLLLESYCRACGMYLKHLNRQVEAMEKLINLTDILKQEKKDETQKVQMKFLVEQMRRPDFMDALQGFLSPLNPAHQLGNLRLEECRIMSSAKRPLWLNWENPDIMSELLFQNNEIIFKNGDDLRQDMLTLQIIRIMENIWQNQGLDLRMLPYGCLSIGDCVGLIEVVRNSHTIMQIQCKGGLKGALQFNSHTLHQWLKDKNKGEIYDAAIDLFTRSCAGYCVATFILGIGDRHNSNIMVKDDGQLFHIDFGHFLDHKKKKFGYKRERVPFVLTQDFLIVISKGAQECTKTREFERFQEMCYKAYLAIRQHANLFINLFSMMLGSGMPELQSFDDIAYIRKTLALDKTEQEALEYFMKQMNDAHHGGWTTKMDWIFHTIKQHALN

`Cn1cc(-c2cc(-c3cnc4[nH]ccc4c3)ccn2)n(-c2ccc(CC#N)cc2)c1=O` [Example A32, (4-{3-Methyl-2-oxo-5-[4-(1H-pyrrolo[2,3-b]pyridin-5-yl)pyridin-2-yl]-2,3-dihydroimidazol-1-yl}phenyl)acetonitrile]: the melting point stood at 252 °C. The IC50 in data set [1] fell in the range of 100 to 10000 nM. In addition, the IC50 in data set [2] is 0.1 to 100 nM. In data set [3], the IC50 is 100 to 10000 nM. In addition, in data set [4], the Kd lay in the range of 0.1 to 100 nM. The IC50 in data set [5] was in the range of 0.1 to 100 nM. The compound further returned an IC50 in data set [6] of 0.1 to 100 nM.
Consider `CCOC(=O)C(C)(C)c1ccc(-n2c(-c3cc(-c4cnc5ccccc5c4)ccn3)cn(C)c2=O)cc1` [Example A36, Ethyl 2-methyl-2-{4-[3-methyl-2-oxo-5-(4-quinolin-3-ylpyridin-2-yl)-2,3-dihydro-imidazol-1-yl]phenyl}propionate], for which the melting point came to 158 °C. For the same compound, in data set [1], the IC50 is greater than 10000 nM. In data set [2], this compound registered an IC50 of 0.1 to 100 nM. In data set [3], the IC50 was greater than 10000 nM. Besides, in data set [4], the Kd lay in the range of 100 to 10000 nM. Besides, in data set [5], the IC50 lay in the range of 100 to 10000 nM. The compound also returned an IC50 in data set [6] of 100 to 10000 nM.
Turning to `Cn1cc(-c2cc(-c3cnc4[nH]ncc4c3)ccn2)n(-c2ccc(C(C)(C)C#N)cc2)c1=O` [Example A41, 2-Methyl-2-(4-{3-methyl-2-oxo-5-[4-(1H-pyrazolo[3,4-b]pyridin-5-yl)pyridin-2-yl]-2,3-dihydroimidazol-1-yl}phenyl)propionitrile], the melting point amounted to 294 °C. Moreover, in data set [1], the concentration for half-maximal inhibition (IC50) fell in the range of 100 to 10000 nM. The same compound came in with an IC50 in data set [2] of 0.1 to 100 nM. Moreover, the IC50 in data set [3] lay within 100 to 10000 nM. Besides, in data set [4], the Kd was 0.1 to 100 nM. Moreover, in data set [5], the IC50 fell in the range of 0.1 to 100 nM. For the same compound, the IC50 in data set [6] lay within 100 to 10000 nM.
Regarding `Cn1cc(-c2cc(-c3cnc4c(c3)CCN4)ccn2)n(-c2ccc(C(C)(C)C#N)cc2)c1=O` [Example A43, 2-(4-{5-[4-(2,3-Dihydro-1H-pyrrolo[2,3-b]pyridin-5-yl)pyridin-2-yl]-3-methyl-2-oxo-2,3-dihydroimidazol-1-yl}phenyl)-2-methylpropionitrile], the melting point is 247 °C. Moreover, in data set [1], the IC50 is 100 to 10000 nM. The IC50 in data set [2] was 0.1 to 100 nM. In addition, in data set [3], the IC50 lay in the range of 100 to 10000 nM. In addition, in data set [4], the Kd was in the range of 0.1 to 100 nM. In addition, in data set [5], the concentration for half-maximal inhibition (IC50) fell in the range of 0.1 to 100 nM. In data set [6], this compound displayed an IC50 of 100 to 10000 nM.
The compound `Cn1cc(-c2cc(-c3cnc4c(c3)CC(=O)N4)ccn2)n(-c2ccc(C(C)(C)C#N)cc2)c1=O` [Example A44, 2-Methyl-2-(4-{3-methyl-2-oxo-5-[4-(2-oxo-2,3-dihydro-1H-pyrrolo[2,3-b]pyridin-5-yl)pyridin-2-yl]-2,3-dihydroimidazol-1-yl}phenyl)propionitrile] displayed a melting point of 263 °C. In data set [1], the IC50 was 100 to 10000 nM. Also, in data set [2], the IC50 lay within 0.1 to 100 nM. For the same compound, the half-inhibitory concentration (IC50) in data set [3] was 100 to 10000 nM. Further, in data set [4], the Kd lay within 0.1 to 100 nM. Besides, the IC50 in data set [5] lay within 100 to 10000 nM. Further, in data set [6], the IC50 lay within 100 to 10000 nM.
The compound `CN1CCN(c2ccc(-n3c(-c4cc(-c5cnc6[nH]ccc6c5)ccn4)cn(C)c3=O)cc2C(F)(F)F)CC1` [Example A49, 1-Methyl-3-[4-(4-methylpiperazin-1-yl)-3-trifluoromethylphenyl]-4-[4-(1H-pyrrolo[2,3-b]pyridin-5-yl)pyridin-2-yl]-1,3-dihydroimidazol-2-one] returned a melting point of 241 °C. Besides, the IC50 in data set [1] was 100 to 10000 nM. In addition, in data set [2], the IC50 fell in the range of 0.1 to 100 nM. In addition, the IC50 in data set [3] fell in the range of 100 to 10000 nM. Besides, the Kd in data set [4] lay in the range of 0.1 to 100 nM. The IC50 in data set [5] fell in the range of 100 to 10000 nM. In data set [6], the IC50 lay in the range of 100 to 10000 nM.
In turn, `Cn1cc(-c2cc(-c3ccc4[nH]ncc4c3)ccn2)n(-c2ccc(C(C)(C)C#N)cc2)c1=O` [Example A52, 2-(4-{5-[4-(1H-Indazol-5-yl)pyridin-2-yl]-3-methyl-2-oxo-2,3-dihydroimidazol-1-yl}phenyl)-2-methylpropionitrile] came in with a melting point of 165 °C. In data set [1], the IC50 lay within 100 to 10000 nM. In data set [2], this compound showed an IC50 of 0.1 to 100 nM. The concentration for half-maximal inhibition (IC50) in data set [3] was 100 to 10000 nM. The Kd in data set [4] lay in the range of 0.1 to 100 nM. In addition, in data set [5], the IC50 lay in the range of 100 to 10000 nM. Also, in data set [6], the IC50 fell in the range of 100 to 10000 nM.
Regarding `Cn1cc(-c2cc(-c3cnc4[nH]ccc4c3)ccn2)n(-c2cccc(C#N)c2)c1=O` [Example A55, 3-{3-Methyl-2-oxo-5-[4-(1H-pyrrolo[2,3-b]pyridin-5-yl)pyridin-2-yl]-2,3-dihydro-imidazol-1-yl}benzonitrile], the melting point is 265 °C. In addition, the IC50 in data set [1] lay within 100 to 10000 nM. The compound further had a half-inhibitory concentration (IC50) in data set [2] of 0.1 to 100 nM. In data set [3], the IC50 lay in the range of 100 to 10000 nM. The Kd in data set [4] lay within 100 to 10000 nM. Moreover, the IC50 in data set [5] was in the range of 100 to 10000 nM. This compound also yielded an IC50 in data set [6] of 100 to 10000 nM.
Turning to `O=c1cc(N2CCOCC2)oc2c(-c3ccccc3)cccc12` [LY294002], the IC50 in data set [7] was 5000 to 10000 nM.
